Measured values reported in patent US6461997B1, “Triazole sulfones having herbicidal activity” (Monsanto Technology LLC, priority 1999, dated 2002).

Assays:
AMARE (redroot pigweed) = assay: Pre-emergence herbicidal activity, warm season; type: in vivo, Amaranthus retroflexus; conditions: GR80 = lowest tested rate (300, 100, 30, 10 g/ha) with 80% or greater inhibition; approx. 14 days after treating; 30/21° C.
How it was run: (§1)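 Seeds sown in sterilised fertilised topsoil received surface-applied compound in 50:50 acetone/water, typically at 300, 100, 30 and 10 g/ha, then greenhouse-grown at 30/21° C (warm-season species) or 18/13° C (cool-season species). Percent inhibition versus untreated plants was scored at about 14 days, giving GR80; an asterisk marks activity short of 80% at the top rate.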

[1] = system: CHEAL (common lambsquarters); assay: Pre-emergence herbicidal activity, warm season; type: in vivo, Chenopodium album; conditions: GR80 = lowest tested rate (300, 100, 30, 10 g/ha) with 80% or greater inhibition; approx. 14 days after treating; 30/21° C.
How it was run: as §1

CONAR (field bindweed) = assay: Pre-emergence herbicidal activity, warm season; type: in vivo, Convolvulus arvensis; conditions: GR80 = lowest tested rate (300, 100, 30, 10 g/ha) with 80% or greater inhibition; approx. 14 days after treating; 30/21° C.
Procedure: (§2) Tables 5 to 8 summarize results of tests conducted as described below to determine the pre-emergence herbicidal activity, in the form of a GR80 value, of illustrative compounds of this invention. […] Compounds of the invention were typically applied at rates of 300, 100, 30, and 10 g/ha. Where herbicidal activity was evident but 80% inhibition was not achieved at the highest rate tested, an asterisk (*) is shown in the following tables.
(§3) The pre-emergence tests were conducted by the following procedure. Topsoil was sieved to pass through a 1.27 cm screen. Fertilizer was added to the topsoil and the mixture was then sterilized by heating. The topsoil mixture was placed in a pot and compacted to a depth of 1.0 to 1.25 cm from the top of the pot. Seeds of each of several monocotyledonous and dicotyledonous annual plant species were placed on top of the soil. Additional soil was subsequently placed over the seeds to level-fill the pot. A known amount of each test compound dissolved or suspended in an appropriate organic solvent was diluted with a 50:50 mix of acetone and water and applied to the surface of the soil. After treatment the plants were placed in a greenhouse where they received 0.64 cm of overhead irrigation. All subsequent watering consisted of a light overhead mist and/or subirrigation as needed for germination and growth. Tables 5 and 6 below relate to warm season plant species which were placed after pre-emergence treatment in a greenhouse with a 30/21° C. day/night temperature regime. Tables 7 and 8 below relates to cool season plant species placed after pre-emergence treatment in a greenhouse or growth chamber with an 18/13° C. day/night temperature regime.
(§4) Approximately 14 days after planting and treating, the plants were observed and herbicidal efficacy recorded as percent inhibition by comparison with untreated plants.
(§5) The plant species usually regarded as weeds which were utilized in the tests are identified in the tables below according to the following legend, in which “d” indicates a dicotyledonous species and “m” a monocotyledonous species. All monocotyledonous species included in the tests herein are grasses.

POROL (common purslane) = assay: Pre-emergence herbicidal activity, warm season; type: in vivo, Portulaca oleracea; conditions: GR80 = lowest tested rate (300, 100, 30, 10 g/ha) with 80% or greater inhibition; approx. 14 days after treating; 30/21° C.
How it was run: as §1

[2] = system: CIRAR (canada thistle (seedling)); assay: Pre-emergence herbicidal activity, warm season; type: in vivo, Cirsium arvense; conditions: GR80 = lowest tested rate (300, 100, 30, 10 g/ha) with 80% or greater inhibition; approx. 14 days after treating; 30/21° C.
How it was run: as §1

[3] = system: PANMI (wild proso millet); assay: Pre-emergence herbicidal activity, warm season; type: in vivo, Panicum miliaceum; conditions: GR80 = lowest tested rate (300, 100, 30, 10 g/ha) with 80% or greater inhibition; approx. 14 days after treating; 30/21° C.
How it was run: (§6)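 Read-out: GR80, derived from percent growth inhibition relative to untreated plants at roughly 14 days after planting and treatment. Compounds went onto the surface of freshly seeded soil at 10–300 g/ha. Day/night regimes were 30/21 °C for millet and crabgrass, 18/13 °C for blackgrass and buckwheat.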

[4] = system: SORHA (johnsongrass (seedling)); assay: Pre-emergence herbicidal activity, warm season; type: in vivo, Sorghum halepense; conditions: GR80 = lowest tested rate (300, 100, 30, 10 g/ha) with 80% or greater inhibition; approx. 14 days after treating; 30/21° C.
How it was run: (§7)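 Activity is expressed as the rate giving 80% inhibition, with 300, 100, 30 and 10 g/ha typically tested. An asterisk marks activity short of 80% at the top rate. Warm-season grasses were held at 30/21 °C; cool-season blackgrass and wild buckwheat at 18/13 °C; scoring at about 14 days.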

SETFA (giant foxtail) = assay: Pre-emergence herbicidal activity, warm season; type: in vivo, Setaria faberi; conditions: GR80 = lowest tested rate (300, 100, 30, 10 g/ha) with 80% or greater inhibition; approx. 14 days after treating; 30/21° C.
How it was run: as §7

DIGSA (large crabgrass) = assay: Pre-emergence herbicidal activity, warm season; type: in vivo, Digitaria sanguinalis; conditions: GR80 = lowest tested rate (300, 100, 30, 10 g/ha) with 80% or greater inhibition; approx. 14 days after treating; 30/21° C.
How it was run: as §6

[5] = system: GALAP (catchweed bedstraw); assay: Pre-emergence herbicidal activity, cool season; type: in vivo, Galium aparine; conditions: lowest tested rate with 80% or greater inhibition; rates 300, 100, 30, 10 g/ha; about 14 days
How it was run: as §1

POLCO (wild buckwheat) = assay: Pre-emergence herbicidal activity, cool season; type: in vivo, Polygonum convolvulus; conditions: lowest tested rate with 80% or greater inhibition; rates 300, 100, 30, 10 g/ha; about 14 days
How it was run: as §6

SINAR (wild mustard) = assay: Pre-emergence herbicidal activity, cool season; type: in vivo, Sinapis arvensis; conditions: lowest tested rate with 80% or greater inhibition; rates 300, 100, 30, 10 g/ha; about 14 days
How it was run: as §1

[6] = system: VERPE (creeping speedwell); assay: Pre-emergence herbicidal activity, cool season; type: in vivo, Veronica persicaria; conditions: lowest tested rate with 80% or greater inhibition; rates 300, 100, 30, 10 g/ha; about 14 days
How it was run: as §1

SASKR (russian thistle) = assay: Pre-emergence herbicidal activity, cool season; type: in vivo, Salsola kali; conditions: lowest tested rate with 80% or greater inhibition; rates 300, 100, 30, 10 g/ha; about 14 days
How it was run: as §1

STEME (common chickweed) = assay: Pre-emergence herbicidal activity, cool season; type: in vivo, Stellaria media; conditions: lowest tested rate with 80% or greater inhibition; rates 300, 100, 30, 10 g/ha; about 14 days
How it was run: as §1

[7] = system: LAMPU (purple deadnettle); assay: Pre-emergence herbicidal activity, cool season; type: in vivo, Lamium purpureum; conditions: lowest tested rate with 80% or greater inhibition; rates 300, 100, 30, 10 g/ha; about 14 days
How it was run: as §1

ALOMY (blackgrass) = assay: Pre-emergence herbicidal activity, cool season; type: in vivo, Alopecurus myosuroides; conditions: GR80 = lowest tested rate (300, 100, 30, 10 g/ha) with 80% or greater inhibition; approx. 14 days after treating; 18/13° C.
How it was run: as §6

SETVI (green foxtail) = assay: Pre-emergence herbicidal activity, cool season; type: in vivo, Setaria viridis; conditions: GR80 = lowest tested rate (300, 100, 30, 10 g/ha) with 80% or greater inhibition; approx. 14 days after treating; 18/13° C.
How it was run: as §1

LOLMG (annual ryegrass) = assay: Pre-emergence herbicidal activity, cool season; type: in vivo, Lolium multiflorum; conditions: GR80 = lowest tested rate (300, 100, 30, 10 g/ha) with 80% or greater inhibition; approx. 14 days after treating; 18/13° C.
How it was run: as §1

[8] = system: AEGCY (jointed goatgrass); assay: Pre-emergence herbicidal activity, cool season; type: in vivo, Aegilops cylindrica; conditions: GR80 = lowest tested rate (300, 100, 30, 10 g/ha) with 80% or greater inhibition; approx. 14 days after treating; 18/13° C.
Procedure: as §2, §3, §4, §5

[9] = system: AGSST (creeping bentgrass); assay: Pre-emergence herbicidal activity, cool season; type: in vivo, Agrostis stolonifera; conditions: GR80 = lowest tested rate (300, 100, 30, 10 g/ha) with 80% or greater inhibition; approx. 14 days after treating; 18/13° C.
How it was run: as §1

[10] = system: BRAPP (broadleaf signalgrass); assay: Pre-emergence herbicidal activity, warm season; type: in vivo, Brachiaria platyphylla; conditions: GR80 = lowest tested rate (300, 100, 30, 10 g/ha) with 80% or greater inhibition; approx. 14 days after treating; 30/21° C.
How it was run: as §7

AVEFA (wild oat) = assay: Pre-emergence herbicidal activity, cool season; type: in vivo, Avena fatua; conditions: GR80 = lowest tested rate (300, 100, 30, 10 g/ha) with 80% or greater inhibition; approx. 14 days after treating; 18/13° C.
Procedure: as §2, §3, §4, §5

O=C(N1CCCC1)n1cnc(S(=O)(=O)C(F)(F)Br)n1 [Example 23, 3-(bromodifluoromethylsulfonyl)-1-(pyrrolidinocarbonyl)-1,2,4-triazole]
30 g/ha: Pre-emergence activity GR80, POLCO (POLCO (wild buckwheat))
[empty]: Pre-emergence activity GR80, VERPE [6] | Pre-emergence activity GR80, SASKR (SASKR (russian thistle))
300 g/ha: Pre-emergence activity (GR80) AMARE (AMARE (redroot pigweed)) | Pre-emergence activity (GR80) CHEAL [1] | Pre-emergence activity (GR80) CONAR (CONAR (field bindweed)) | Pre-emergence activity (GR80) POROL (POROL (common purslane)) | Pre-emergence activity (GR80) CIRAR [2] | Pre-emergence activity (GR80) SORHA [4] | Pre-emergence activity (GR80) DIGSA (DIGSA (large crabgrass)) | Pre-emergence activity GR80, GALAP [5] | Pre-emergence activity GR80, SINAR (SINAR (wild mustard)) | Pre-emergence activity (GR80) ALOMY (ALOMY (blackgrass)) | Pre-emergence activity (GR80) LOLMG (LOLMG (annual ryegrass)) | Pre-emergence activity (GR80) AEGCY [8]
100 g/ha: Pre-emergence activity (GR80) PANMI [3] | Pre-emergence activity (GR80) SETFA (SETFA (giant foxtail)) | Pre-emergence activity GR80, STEME (STEME (common chickweed)) | Pre-emergence activity GR80, LAMPU [7] | Pre-emergence activity (GR80) SETVI (SETVI (green foxtail)) | Pre-emergence activity (GR80) AGSST [9]

C=CCN(C)C(=O)n1cnc(S(=O)(=O)C(F)F)n1 [Example 30]
300 g/ha: Pre-emergence activity (GR80) POROL (POROL (common purslane)) | Pre-emergence activity (GR80) CIRAR [2] | Pre-emergence activity (GR80) SETFA (SETFA (giant foxtail)) | Pre-emergence activity (GR80) BRAPP [10] | Pre-emergence activity (GR80) DIGSA (DIGSA (large crabgrass)) | Pre-emergence activity (GR80) ALOMY (ALOMY (blackgrass)) | Pre-emergence activity (GR80) SETVI (SETVI (green foxtail))
10 g/ha: Pre-emergence activity GR80, VERPE [6] | Pre-emergence activity GR80, SASKR (SASKR (russian thistle)) | Pre-emergence activity GR80, STEME (STEME (common chickweed)) | Pre-emergence activity GR80, LAMPU [7]
100 g/ha: Pre-emergence activity (GR80) PANMI [3] | Pre-emergence activity GR80, GALAP [5] | Pre-emergence activity GR80, POLCO (POLCO (wild buckwheat)) | Pre-emergence activity GR80, SINAR (SINAR (wild mustard)) | Pre-emergence activity (GR80) AVEFA (AVEFA (wild oat)) | Pre-emergence activity (GR80) AEGCY [8]
30 g/ha: Pre-emergence activity (GR80) AGSST [9]
